Reference: patent US6245757A, “Use of progestins to treat ischemic event” (priority 1998, dated 2001)

How the values were obtained:
[1] = system: middle cerebral artery occlusion rats; conditions: one hour prior to MCAO; early stages of ischemia; cited from earlier work
[2] = system: GABA receptor; conditions: physiological levels of PROG, in vivo; cited from earlier work
[3] = system: cerebral contusion; conditions: one hour after the cerebral trauma; cited from earlier work
[4] = circulating PROG; cited from earlier work
[5] = Body weight loss after MCAO, Example 1; conditions: for Body weight loss: mean ± S.E.M.
Method: (§1) Briefly, the right common carotid artery, external carotid artery (ECA) and internal carotid artery (ICA) were exposed. A length of 4-0 monofilament nylon suture (18.5-19.5 mm), determined by the animal weight, with its tip rounded by heating near a flame, was advanced from the ECA into the lumen of the ICA until it blocked the origin of the MCA. Two hours after MCAO, animals were reanaesthetized with halothane and reperfusion was performed by withdrawal of the suture until the tip cleared the lumen of the ICA.
(§2) Four randomly assigned populations of animals were tested. Group 1 (n=12): water soluble PROG (PROG with balance of 2-hydroxypropyl-β-cyclodextrin) (Sigma Chemical Co., St Louis, Mo.) dissolved in saline (4.0 mg/ml) was injected intraperitoneally (4.0 mg/kg) 30 minutes before MCAO. The remaining injections (all 4.0 mg/kg) were given at 6 and 24 hours after MCAO, respectively. Group 2 (n =12): the experimental protocol was identical to that in Group 1, except that PROG (4-pregnene-3,20-dione) (Sigma Chemical Co., St Louis, Mo.) dissolved in dimethyl sulfoxide (DMSO; Sigma Chemical Co., St Louis, Mo.) (8.0 mg/ml), instead of water soluble PROG, was administered. Group 3 (n=12): the experimental protocol was identical to that in group 2, except that the initial injection was delayed to the onset of reperfusion (2 hours after MCAO). Group 4 (n=12): the experimental protocol was the same as that in Group 2, except that the same volume of DMSO without PROG (0.5 ml/kg) as in Group 2 was administered.
(§3) All animals were weighed before surgery for MCAO and at 24 and 48 hours after MCAO. Neurological abnormalities were also evaluated 24 and 48 hours after MCAO using the scale (0-4) described by Z. Longa et al., Stroke, 20, 84 (1989). Rats were held gently by the tail, suspended one meter above the floor, and observed for forelimb flexion. […] Rats that consistently flexed the left forelimb (contralateral to the injured hemisphere) accompanying flexion of the wrist toward left without any other abnormality were graded 1. Rats that were allowed to move about freely and circled toward the paretic side consistently were graded 2. Rats that fell down to the left losing the ability to walk were graded 3.
(§4) For parametric variables, a one way ANOVA was applied to determine the statistical significance of differences among groups. If a significant difference was detected, then two sample t-tests with Bonferroni correction were performed to evaluate differences between control and PROG treated groups. Paired t-tests were performed on physiological parameters before and after administration of PROG and DMSO within each group. Values presented in this study are mean ±S.E.M. A probability value less than 0.05 was considered significant.

[6] = system: middle cerebral artery occlusion (MCAO) rats; experiment: Neurological deficit score after MCAO (Zea Longa scale 0-4), Example 1; conditions: for Neurologic Score: scale 0-4, mean ± S.E.M., DMSO group 1.8 ± 0.1
Method: as §1, §2, §3, §4

[7] = system: central nervous system (CNS); conditions: cited from earlier work
[8] = system: middle cerebral artery occlusion (MCAO) rats; experiment: Infarct volume after MCAO (TTC staining), Example 1; type: in vivo, Male Wistar rats; conditions: for % Infarct volume (to the contralateral hemisphere): 48 h post MCAO, n=12, mean ± S.E.M., DMSO group 35.1 ± 4.5; for decrease of percent infarct volume compared with DMSO treated control group: 4.0 mg/kg i.p.
[9] = in vivo; conditions: rat, ip, 4 mg/kg, plasma level of PROG
[10] = Physiological variables (blood pH, pCO2, pO2, blood pressure) before and after injection, rat MCAO; type: in vivo, Male Wistar rats; conditions: for Mean Blood Pressure / pCO2 / pH / pO2: n=12, mean ± S.E.M.
[11] = system: global cerebral ischemia; conditions: 7-day pretreatment; cited from earlier work
[12] = system: GABA receptor; conditions: neurons; cited from earlier work
[13] = system: stroke patients; conditions: cited from earlier work
[14] = both groups of regular PROG treated animals (pre- and post-MCAO), 4.0 mg/kg i.p.
[15] = 20 min post-injection, 4.0 mg/kg i.p. 30 min before MCAO
[16] = 20 min post-injection, 4.0 mg/kg i.p. 2 h after MCAO
[17] = pre-injection, group 4.0 mg/kg i.p. 30 min before MCAO
[18] = pre-injection, group 4.0 mg/kg i.p. 2 h after MCAO

For `CC(=O)[C@H]1CC[C@H]2[C@@H]3CCC4=CC(=O)CC[C@]4(C)[C@H]3CC[C@]12C` [PROG, 4-pregnene-3,20-dione], the brain edema [1] is listed as “reduce brain edema in the early stages of ischemia”, the “GABA-mediated inhibition of neuronal activity” value [2] is listed as “enhance GABA-mediated inhibition of neuronal activity” and the “edema resulting from cerebral contusion” value [3] is listed as “reduced edema”. The “passage through the blood-brain barrier” value [4] was “easily passes through the blood-brain barrier”, the Body weight loss ([5]; 24 h after MCAO, 4.0 mg/kg i.p. first dose 30 min before MCAO, DMSO group 40.4 ± 3.4) was 31.1 ± 2.6 grams and the Body weight loss ([5]; 24 h after MCAO, 4.0 mg/kg i.p. first dose 2 h after MCAO, DMSO group 40.4 ± 3.4) was 33.8 ± 1.9 grams. The Body weight loss ([5]; 48 h after MCAO, 4.0 mg/kg i.p. first dose 30 min before MCAO, DMSO group 19.7 ± 2.9) was 8.8 ± 2.2 grams, the Body weight loss ([5]; 48 h after MCAO, 4.0 mg/kg i.p. first dose 2 h after MCAO, DMSO group 19.7 ± 2.9) was 10.0 ± 3.1 grams and the “body weight loss compared with DMSO group” value [5, 14] was “reduced body weight loss”. For the same molecule, the “Neurologic Score” value ([6]; 24 h after MCAO, 4.0 mg/kg i.p. first dose 30 min before MCAO) was 1.4 ± 0.1 score, the “Neurologic Score” value ([6]; 24 h after MCAO, 4.0 mg/kg i.p. first dose 2 h after MCAO) was 1.4 ± 0.1 score and the “Neurologic Score” value ([6]; 48 h after MCAO, 4.0 mg/kg i.p. first dose 30 min before MCAO) was 1.4 ± 0.1 score. For the same molecule, the “Neurologic Score” value ([6]; 48 h after MCAO, 4.0 mg/kg i.p. first dose 2 h after MCAO) was 1.4 ± 0.1 score, the “neurological function compared with DMSO group” value [6, 14] was “improved neurological function” and the CNS actions ([7]; PROG and its related metabolites) was “CNS depressants and exert anesthetic, anticonvulsant and anxiolytic actions”. The anticonvulsant activity ([7]; in vivo) was “possesses anticonvulsant activity”, the “% Infarct volume (to the contralateral hemisphere)” value ([8]; 4.0 mg/kg i.p. 30 min before, 6 and 24 h after MCAO) was 21.5 ± 2.9% and the “% Infarct volume (to the contralateral hemisphere)” value ([8]; 4.0 mg/kg i.p. first dose 2 h after MCAO) was 23.1 ± 2.3%. The “decrease of percent infarct volume compared with DMSO treated control group” value ([8]; delayed treated (2 h after MCAO), P=0.027) was 34%, the “decrease of percent infarct volume compared with DMSO treated control group” value ([8]; first dose 30 min before MCAO, DMSO dissolved PROG P=0.018, water soluble PROG P=0.290 (not significant)) was 39% and the “effectiveness 2 hours after onset of MCAO versus prior to onset” value ([8]; 2 h after onset vs prior to onset of MCAO) was “as effective”. The concentration at 4 h [9] was 41.9 ng/mL, the “Mean Blood Pressure” value [10, 15] was 95 ± 2 mm Hg and the pCO2 [10, 15] was 39 ± 2 mm Hg. For the same molecule, the pH [10, 15] was 7.43 ± 0.02, the pO2 [10, 15] was 135 ± 5 mm Hg and the “Mean Blood Pressure” value [10, 16] was 103 ± 3 mm Hg. For the same molecule, the pCO2 [10, 16] was 36 ± 1 mm Hg, the pH [10, 16] was 7.44 ± 0.01 and the pO2 [10, 16] was 134 ± 3 mm Hg. For the same molecule, the “physiological variables before and after injection” value ([10]; before vs 20 min after initial treatment, 4.0 mg/kg i.p.) was “no significant difference”, the “Mean Blood Pressure” value [10, 17] was 94 ± 3 mm Hg and the pCO2 [10, 17] was 41 ± 1 mm Hg. For the same molecule, the pH [10, 17] was 7.44 ± 0.01, the pO2 [10, 17] was 134 ± 4 mm Hg and the “Mean Blood Pressure” value [10, 18] was 107 ± 3 mm Hg. The pCO2 [10, 18] was 36 ± 1 mm Hg, the pH [10, 18] was 7.46 ± 0 and the pO2 [10, 18] was 133 ± 4 mm Hg. For the same molecule, the “neuroprotective activity following global cerebral ischemia” value [11] was “exhibited neuroprotective activity following global cerebral ischemia only after a 7-day pretreatment regimen”, the “absorption by the intraperitoneal route” value (4.0 mg/kg i.p., DMSO dissolved, n=2) was “absorbed rapidly” and the “plasma level of PROG” value (rat, in vivo, ip, 4 mg/kg, 4 h) was 70.7 ng/mL. The “GABA-evoked Cl currents” value [12] was “potentiating GABA-evoked Cl currents”.
For `C[C@@H]1C[C@H]2[C@@H]3CCC4=CC(=O)C=C[C@]4(C)[C@@]3(F)[C@@H](O)C[C@]2(C)[C@@]1(O)C(=O)CO` [dexamethasone], the “outcome, steroid vs non-steroid treated patients” value [13] is listed as “no significant difference in outcome”.
In the case of `C[C@H]1C[C@@H]2[C@H]([C@@H](O)C[C@@]3(C)[C@H]2CC[C@]3(O)C(=O)CO)[C@@]2(C)C=CC(=O)C=C12` [methylprednisolone], the “outcome, steroid vs non-steroid treated patients” value [13] is given as “no significant difference in outcome”.
